Reference: ChEMBL document CHEMBL4184171, “Design and synthesis of a biaryl series as inhibitors for the bromodomains of CBP/P300” (Bioorg Med Chem Lett, 2018)
Values after ≈ are worked out from the molar mass of the structure shown.

Columns and labels:
[1] = target: Bromodomain-containing protein 4 (Homo sapiens, UniProt O60885)
Description: Inhibition of BRD4 bromodomain 1 (unknown origin) by TR-FRET assay

in vitro [2] = settings: rat, microsomes
Description: Clearance in rat liver microsomes

in vitro [3] = settings: human, microsomes
Description: Clearance in human liver microsomes

in vitro [4] = settings: mouse, microsomes
Description: Clearance in mouse liver microsomes

physchem = settings: buffer, pH 7.4
Description: Kinetic solubility in PBS buffer at pH 7.4

in vivo [5] = settings: CD-1, mouse, iv, 1 mg/kg
Description: Clearance in CD-1 mouse at 1 mg/kg, iv or 5 mg/kg, po

in vitro [6] = settings: mouse, hepatocytes
Description: Hepatic clearance in mouse hepatocytes

in vivo [7] = settings: CD-1, mouse, iv, 1 mg/kg; remark: listed apart in the source
Description: Volume of distribution at steady state in CD-1 mouse at 1 mg/kg, iv or 5 mg/kg, po

in vitro [8] = settings: dog, MDCK
Description: Apparent permeability from apical to basolateral side in MDCK cells

in vitro [9] = settings: human, plasma
Description: Protein binding in human plasma

in vitro [10] = settings: human, hepatocytes
Description: Hepatic clearance in human hepatocytes

in vivo [11] = settings: CD-1, mouse
Description: Half life in CD-1 mouse at 1 mg/kg, iv or 5 mg/kg, po

in vitro [12] = settings: rat, plasma
Description: Protein binding in rat plasma

in vitro [13] = settings: rat, hepatocytes
Description: Hepatic clearance in rat hepatocytes

in vitro [14] = settings: mouse, plasma
Description: Protein binding in mouse plasma

in vivo [15] = settings: CD-1, mouse, po, 5 mg/kg

Structure (SMILES): COc1ccc(-c2nn(C3CCOCC3)c3c2CN(C(C)=O)CC3)c2cnccc12
- IC50 [1]: 11 µM

Structure (SMILES): CC(=O)N1CCc2c(c(-c3cccc4cc(-c5cn(C)nc5C#N)ncc34)nn2C2CCOCC2)C1
- CLhep predicted (in vitro [2]): 45 mL/min/kg
- IC50 [1]: 3.8 µM
- CLhep predicted (in vitro [3]): 11 mL/min/kg
- CLhep predicted (in vitro [4]): 32 mL/min/kg

Structure (SMILES): CC(=O)N1CCc2c(c(-c3cc(CO)cc4ccncc34)nn2C2CCOCC2)C1
- IC50 [1]: > 20 µM

Structure (SMILES): CC(=O)N1CCc2c(c(-c3cccc4c[nH]c(=O)cc34)nn2C2CCOCC2)C1
- IC50 [1]: > 20 µM

Structure (SMILES): CC(=O)N1CCc2c(c(-c3cncc4ccccc34)nn2C2CCOCC2)C1
- IC50 [1]: > 20 µM

Structure (SMILES): CC(=O)N1CCc2c(c(-c3cccc4cc(-c5cnn(C)c5)ncc34)nn2C2CCOCC2)C1
- solubility kinetic (physchem): 92 µM (≈ 42 µg/mL)
- clearance (in vivo [5]): 11 mL/min/kg
- CLhep predicted (in vitro [6]): < 21 mL/min/kg
- CLhep predicted (in vitro [2]): 18 mL/min/kg
- Vd (in vivo [7]): 1.3 L/kg
- Papp A→B (in vitro [8]): 10 ×10⁻⁶ cm/s
- IC50 [1]: 2.5 µM
- CLhep predicted (in vitro [3]): 8 to 8.3 mL/min/kg
- fraction unbound (in vitro [9]): 0.3
- CLhep predicted (in vitro [10]): < 6 mL/min/kg
- half-life (in vivo [11]): 1.6 h
- fraction unbound (in vitro [12]): 0.24
- CLhep predicted (in vitro [4]): 20 mL/min/kg
- CLhep predicted (in vitro [13]): 14 mL/min/kg
- fraction unbound (in vitro [14]): 0.15
- bioavailability (in vivo [15]): 67%
